Holding throughout (assay): NCI tumour cell line growth inhibition, 48 h
Test [1] deals with ACHN renal.
Test [2] relates to HCC-2998 colon.
Test [3] deals with HCT-116 colon.
Test [4] has as its system HL-60(TB) leukemia.
Test [5] relates to IGROV1 ovarian.
For test [6], the system named is PC-3 prostate.
The subject of test [7] is SF-295 CNS.
Test [8] concerns T-47D breast.
For test [9], the system named is UACC-62 melanoma.
Test [10] deals with UO-31 renal.

This is an account of results in PubChem BioAssay (NCI).

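Following 48 hours of exposure in 96-well plates, responses at five concentrations were used to interpolate endpoints linearly. The concentration for 50% growth inhibition is given as GI50. The concentration for full growth arrest is given as TGI.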

On to `COc1ccc(C2c3ccc4ccccc4c3Oc3ncn(CCCn4ccnc4)c(=N)c32)cc1OC` (centres undefined), for which the GI50 in test [1] was 4.42 µM; in test [2] it was 3.45 µM; in test [3], 3.02 µM; in test [4], 2.04 µM; in test [5], 6.04 µM; in test [6] it was 3.23 µM. Moreover, the GI50 in [7] is 4.35 µM; in test [8] it was 2.39 µM; in test [9] it was 1.9 µM; in [10] it was 3.75 µM. Besides, the TGI came out at 16.2 µM in test [1]; 11.2 µM in test [2]; 11 µM in test [3]; 4.05 µM in test [4]; 21.8 µM in [5]; 12.9 µM in test [6]. Besides, the TGI in test [7] came to 19.9 µM; in [8], 6.25 µM; in test [9], 3.74 µM; in test [10] it was 16.1 µM.
With `CCOC(=O)c1c(NN2CCN(CC(F)(F)F)CC2)oc(/C=C2\C=Nc3ncccc32)c1O`, the GI50 is 5.85 µM in test [1]; 2.7 µM in [2]; 2.09 µM in test [3]; 1.85 µM in test [4]; 7.43 µM in test [5]; 4.04 µM in test [6]. In addition, the GI50 in [7] is 8.47 µM; in [8], 5.08 µM; in [9] it was 4.83 µM; in [10], 5.11 µM. For the same compound, the TGI in test [1] was 77.4 µM; in test [2] it was 12.6 µM; in [3], 17.7 µM; in test [4], 4.67 µM; in test [5] it was 47.8 µM; in test [6], 21.4 µM. The TGI was 37.4 µM in test [7], 34.8 µM in [8], 15.1 µM in test [9] and 28.9 µM in test [10].
`COc1ccc(-c2cnc(-c3ccc(OC)cc3)n2-c2cc(OC)c(OC)c(OC)c2)cc1`: the GI50 in test [2] was 45.7 µM; in [3], 30.9 µM; in test [5], 28.3 µM; in test [6] it was 29.4 µM; in [7] it was 22.1 µM; in test [8], 39.4 µM. Moreover, the GI50 in test [9] is 17.3 µM; in [10], 18.2 µM. Also, the TGI in test [2] is above 100 µM; in [3], above 100 µM; in test [5], above 100 µM; in test [6] it was above 100 µM; in test [7] it was 61.1 µM; in [8] it was above 100 µM. The TGI in test [9] worked out at 45 µM; in [10] it was 50 µM.
With `CCCN(CCC)c1ccc(/C=N/NC(=O)c2cccnc2)c(C)c1`, the GI50 in [1] is 24.5 µM; in test [2], 14.3 µM; in test [3], 13.8 µM; in test [4] it was 13.4 µM; in [5] it was 16 µM; in test [6], 16.8 µM. The GI50 in [7] was 10.7 µM; in test [8], 6.35 µM; in test [9] it was 11.4 µM; in [10] it was 15.6 µM. For the same compound, the TGI in test [1] is above 100 µM; in test [2], 32.1 µM; in test [3] it was 29.3 µM; in test [4], 39.5 µM; in [5] it was 39.7 µM; in test [6] it was 67.7 µM. Also, the TGI in [7] was found to be 25.5 µM; in test [8], 27.6 µM; in test [9], 24.6 µM; in test [10] it was 38.1 µM.
Turning to `CCCCN(CCCC)P(=O)(Oc1ccccc1)Oc1ccccc1`, the GI50 in test [1] is 5.78 µM; in test [2], 10 µM; in test [3], 3.39 µM; in test [4], 4.54 µM; in test [6], 3.79 µM; in test [7], 3.49 µM. The GI50 in test [8] is 7.46 µM; in [9], 11.9 µM. Further, the TGI is 19.3 µM in [1]; 22.2 µM in [2]; 16.8 µM in [3]; 18.7 µM in [4]; 17.6 µM in test [6]; 16.1 µM in [7]. The values for the TGI in [8] and in test [9] were 33.1 µM and 25.7 µM, respectively.
On to `COc1cc(CSc2nc3ccc(Cl)cc3c(=O)n2Cc2ccccc2)cc(OC)c1OC`, for which the GI50 in [1] is 4.23 µM; in test [2], 6.18 µM; in [3] it was 3.72 µM; in [4], 4.11 µM; in test [5], 10.2 µM; in test [6] it was 3.48 µM. In addition, the figures for the GI50 in test [8], in test [9] and in test [10] were 3.92 µM, 2.34 µM and 4.4 µM, respectively. Besides, the TGI in test [1] was 34.2 µM; in [2], above 100 µM; in [3], above 100 µM; in test [4], above 100 µM; in test [5] it was above 100 µM; in [6] it was above 100 µM. In addition, the results for the TGI in [8], in test [9] and in test [10] were above 100 µM, 25.2 µM and above 100 µM, respectively.
For the compound `COc1ccc(O)c(/C=N\Nc2ccccc2)c1`, the TGI in test [1] is above 100 µM; in test [2], 5.33 µM; in test [3], above 100 µM; in test [4], 17.4 µM; in test [6], above 100 µM; in test [8], above 100 µM. Also, the TGI in [9] is 12.3 µM; in test [10], above 100 µM.
In the case of `CCCCCSc1ccc2nc(NC(=O)OCC)sc2c1`, the GI50 is 0.908 µM in [1]; 4.88 µM in test [2]; 0.466 µM in test [3]; 0.351 µM in [4]; 0.945 µM in test [5]; 0.798 µM in test [6]. Besides, the GI50 in test [7] was 0.394 µM; in test [8], 0.583 µM; in test [10], 1.39 µM. In addition, the TGI in [1], in [2], in test [3], in test [4], in test [5] and in [6] was above 100 µM each time. Further, the TGI in [7] was 10.6 µM; in test [8] it was above 100 µM; in [10], above 100 µM.
Regarding `COc1cc(OC)c(C(=O)/C=C/c2ccc(C#N)cc2)c(OC)c1`, the GI50 was 1.29 µM in [1]; 1.9 µM in [2]; 1.07 µM in test [3]; 1.56 µM in test [5]; 1.72 µM in [6]; 1.72 µM in test [7]. Also, the GI50 in test [8] was 1.21 µM; in test [9], 1.45 µM; in test [10], 1.29 µM. The TGI was determined as 4.74 µM in [1]; 6.51 µM in [2]; 3.82 µM in [3]; 7.75 µM in test [5]; 6.87 µM in [6]; 8.81 µM in [7]. Moreover, the TGI in [8] was found to be 7.81 µM; in test [9], 5.78 µM; in test [10] it was 6.26 µM.
